Data as given in patent EP3118202A1, “DIHYDROPYRIDOPYRROLE DERIVATIVES AS TAU-PET-LIGANDS” (AC Immune S.A., priority 2015, dated 2017).

Tests used:
[1] = system: tau tangles/Aβ plaques on AD brain sections; assay: Direct staining of human Alzheimer's disease brain sections (Assay 1, fluorescence based assay); type: binding; set-up: key to Direct staining of tau tangles/Aβ plaques on AD brain sections at 100 µM: - (No); +++ (strong); ++ (good); + (weak); details: for Direct staining of tau tangles/Aβ plaques on AD brain sections at 100 µM: 100 µM in 50% ethanol in water, 20 min, room temperature, frozen amygdala sections, Braak stage V-VI; for Direct staining of tau tangles/Aβ plaques on AD brain sections at 100 µM: structure stained: structure (tangles or plaques) that was stained
Experimental: Assay 1 (Fluorescence based assay):
Direct binding of compounds of this invention to human Alzheimer's disease brain sections
Frozen sections with a thickness of […] from the amygdala of donors diagnosed with Braak stage V-VI Alzheimer's Disease (Braak, H.; Braak, E. Acta Neuropathol., 1991, 82, 239-259), were purchased from a commercial provider (Tissue Solutions) and kept at -80°C until use.
Direct staining of human Alzheimer's disease brain sections
Brain sections were encircled with pap pen liquid blocker to reduce the volume of solution for the different incubations. Sections were fixed for 15 min at 4°C with 4% paraformaldehyde and washed three times 5 minutes with PBS at room temperature. Test compounds were incubated on the sections at 100 µM in 50% ethanol in water for 20 min at room temperature in the dark and then washed three times 5 minutes with PBS. To reduce the auto-fluorescence of the tissue, the sections were incubated in a solution of 0.1% Sudan Black (Sigma 199664) in 70% ethanol for 15 min at room temperature in the dark, washed four times for 5 minutes with PBS, and mounted using ProLong Gold Antifade reagent (Invitrogen P36930). Sections were then analyzed on the Nikon Eclipse Ti microscope to detect staining and imaged using Nikon DS-Fi2 camera and NIS-Element AR4.13.1 software.

[2] = target: T1, MAO-B human - recombinant (Homo sapiens, UniProt P27338); assay: MAO-B assay (MAO-Glo Assay); type: biochemical; details: MAO substrate 4 µM; 1 hour at room temperature; read-out: MAO B binding
T1 construct: purchased Sigma-Aldrich M7441
T1 sequence (P27338 1-520): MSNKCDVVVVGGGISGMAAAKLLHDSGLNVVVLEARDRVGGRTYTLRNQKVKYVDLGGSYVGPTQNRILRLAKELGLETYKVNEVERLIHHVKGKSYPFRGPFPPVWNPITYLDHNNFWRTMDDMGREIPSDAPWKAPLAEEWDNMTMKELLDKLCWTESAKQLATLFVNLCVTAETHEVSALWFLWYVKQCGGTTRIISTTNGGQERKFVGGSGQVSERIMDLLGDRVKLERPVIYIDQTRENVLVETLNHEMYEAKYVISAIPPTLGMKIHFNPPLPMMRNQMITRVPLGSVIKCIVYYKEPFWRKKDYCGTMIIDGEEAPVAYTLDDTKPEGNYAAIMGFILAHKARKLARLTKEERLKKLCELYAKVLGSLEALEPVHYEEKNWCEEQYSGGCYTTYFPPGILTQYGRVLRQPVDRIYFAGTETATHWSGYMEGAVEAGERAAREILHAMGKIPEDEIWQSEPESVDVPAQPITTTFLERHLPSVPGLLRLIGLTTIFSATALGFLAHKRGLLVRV
Experimental: Compounds were tested for their capacity to modulate MAO-B activity within the MAO-Glo™ Assay (Promega, Cat.# V1402). In each well of a 96-well plate, 12.5 µl of 4X MAO Substrate solution (end-concentration in assay: 4 µM) were mixed with 12.5 µl of a 4X solution of the corresponding test compound (end-concentrations ranged from 10 µM to 1.37 nM). In the absence of a test compound (i.e. to gauge the total MAO-B activity), the corresponding volume of MAO-B Reaction Buffer (100 mM HEPES (pH 7.5), 5% glycerol, 10% dimethyl sulphoxide) was added. To initiate the MAO reaction, 25 µl of 2X MAO-B enzyme solution (MAO-B human - recombinant, Sigma-Aldrich, Cat.# M7441; 1 µg MAO-B enzyme/25 µl MAO-B Reaction Buffer) were added per well and mixed briefly. For negative control reactions, 25µl of MAO-B Reaction Buffer were added. Thereafter the plate was incubated at room temperature for 1 hour, following which, 50 µl of reconstituted Luciferin Detection Reagent were added per well and mixed briefly. The plate was then incubated at room temperature for 20 minutes to generate and stabilize the luminescent signal. The luminescent signal was subsequently measured and recorded on the TopCountNXT™ luminescence counter (PerkinElmer). Data were analyzed and graphs were prepared using the Graphpad Prism 6 software.

[3] = target: T2, MAO-A human - recombinant (Homo sapiens, UniProt P21397); assay: Monoamine oxidase A (MAO-A) assay (MAO-Glo Assay); type: biochemical; details: MAO substrate 40 µM; 1 hour at room temperature; read-out: MAO A binding
T2 construct: purchased Sigma-Aldrich M7316
T2 sequence (P21397 1-527): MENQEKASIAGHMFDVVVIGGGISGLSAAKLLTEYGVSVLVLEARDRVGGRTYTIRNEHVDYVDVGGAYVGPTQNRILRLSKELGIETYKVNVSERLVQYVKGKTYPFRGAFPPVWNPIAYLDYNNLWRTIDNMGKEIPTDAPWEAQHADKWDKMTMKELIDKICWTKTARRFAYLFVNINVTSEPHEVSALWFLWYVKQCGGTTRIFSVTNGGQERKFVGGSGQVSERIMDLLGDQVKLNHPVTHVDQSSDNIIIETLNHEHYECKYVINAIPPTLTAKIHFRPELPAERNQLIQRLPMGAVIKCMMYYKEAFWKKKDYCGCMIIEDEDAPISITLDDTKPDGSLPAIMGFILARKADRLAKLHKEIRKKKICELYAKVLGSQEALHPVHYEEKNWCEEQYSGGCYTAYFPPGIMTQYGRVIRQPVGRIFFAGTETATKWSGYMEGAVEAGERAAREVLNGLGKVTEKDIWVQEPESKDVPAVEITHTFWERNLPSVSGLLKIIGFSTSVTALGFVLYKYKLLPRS
Experimental: Monoamine oxidase A (MAO-A) assay
Compounds were tested for their capacity to modulate MAO-A activity within the MAO-Glo™ Assay (Promega, Cat.# V1402). In each well of a 96-well plate, 12.5 µl of 4X MAO Substrate solution (end-concentration in assay: 40 µM) were mixed with 12.5 µl of a 4X solution of the corresponding test compound (end-concentrations ranged from 10 µM to 1.37 nM). In the absence of a test compound (i.e. to gauge the total MAO-A activity), the corresponding volume of MAO Reaction Buffer (100 mM HEPES (pH 7.5), 5% glycerol) was added. To initiate the MAO reaction, 25 µl of 2X MAO-A enzyme solution (MAO-A human - recombinant, Sigma-Aldrich, Cat.# M7316; 1 µg MAO-A enzyme/25 µl MAO Reaction Buffer) were added per well and mixed briefly. For negative control reactions, 25µl of MAO Reaction Buffer were added. Thereafter the plate was incubated at room temperature for 1 hour, following which, 50 µl of reconstituted Luciferin Detection Reagent were added per well and mixed briefly. The plate was then incubated at room temperature for 20 minutes to generate and stabilize the luminescent signal. The luminescent signal was subsequently measured and recorded on the TopCountNXT™ luminescence counter (PerkinElmer). Data were analyzed and graphs were prepared using the Graphpad Prism 6 software.

IC50 [2] | IC50 [3] | Compound | Direct staining of tau tangles/Aβ plaques on AD brain sections at 100 µM [1] | Direct staining of tau tangles/Aβ plaques on AD brain sections at 100 µM: structure stained [1]
 |  | CCn1c2ccncc2c2ccc(N3CCC(OCCF)CC3)nc21 [Example 1] | - | 
 |  | CN(CCF)C1CCN(c2ccc3c4cnccc4n(C)c3n2)CC1 [Example 3] | - | 
> 1000 nM | 430 nM | Cn1c2ccncc2c2ccc(N3CCC(OCC(O)CF)CC3)nc21 (stereo not drawn) [Example 5] | ++ | (tangles)
 |  | CCn1c2ccncc2c2ccc(N3CCC(OCC(O)CF)CC3)nc21 (stereo not drawn) [Example 6] | ++ | (tangles)
> 1000 nM | 790 nM | OC(CF)COC1CCN(c2ccc3c(n2)[nH]c2ccncc23)CC1 (stereo not drawn) [Example 10] |  | 
> 1000 nM | 940 nM | Cn1c2ccncc2c2ccc(N3CCN(CC(O)CF)CC3)nc21 (stereo not drawn) [Example 12] | + | (tangles)
 |  | Cn1c2ccncc2c2ccc(N3CC4CC(C3)C4OCCF)nc21 (stereo not drawn) [Example 13] | ++ | (tangles)
 |  | Cn1c2ccncc2c2ccc(N3CCC(COCCF)CC3)nc21 [Example 14] | - | 
 |  | Cn1c2ccncc2c2ccc(N3CCOC(CCF)C3)nc21 (stereo not drawn) [Example 16] | - | 
